Broadly, the EC50 is the concentration needed to bring the measured effect to its halfway point.

The record followed here is ChEMBL document CHEMBL4418295, “Method for identifying modulators of GPCR GPR1 function” (2014).

The target in this test is T1, Chemerin-like receptor 2 (Homo sapiens, UniProt P46091).
T1 sequence (P46091 whole entry): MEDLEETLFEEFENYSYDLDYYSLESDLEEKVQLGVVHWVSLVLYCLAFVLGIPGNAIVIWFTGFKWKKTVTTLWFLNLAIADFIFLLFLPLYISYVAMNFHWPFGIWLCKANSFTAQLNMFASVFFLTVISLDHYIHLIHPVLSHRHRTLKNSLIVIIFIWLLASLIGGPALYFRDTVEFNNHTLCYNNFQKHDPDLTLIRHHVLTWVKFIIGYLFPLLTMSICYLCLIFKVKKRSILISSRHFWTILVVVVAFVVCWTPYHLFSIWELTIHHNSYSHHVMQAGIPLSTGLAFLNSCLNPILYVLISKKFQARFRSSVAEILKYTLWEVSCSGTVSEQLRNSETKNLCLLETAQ
Briefly: Agonist activity at recombinant human GPR1 expressed in CHOK1 PathHunter cells assessed as beta-arrestin 2 recruitment incubated for 90 mins by luminescence assay. In kind it is cell-based. For orientation: Activated receptors often draw arrestin, which recruitment assays turn into a signal.

Turning to `CC[C@H](C)[C@H](NC(=O)[C@H](CCC(=O)O)NC(=O)[C@@H](CO)NC(=O)[C@@H](NC(=O)[C@H](CC(C)C)NC(=O)[C@H](CC(C)C)NC(=O)[C@H](CC(C)C)NC(=O)[C@H](CC(C)C)NC(=O)[C@H](CS)NC(=O)[C@H](CO)NC(=O)[C@H](Cc1ccccc1)NC(=O)CNC(=O)[C@H](CCCNC(=N)N)NC(=O)[C@@H]1CCCN1C(=O)[C@H](C)NC(=O)[C@@H](N)CCSC)[C@@H](C)O)C(=O)N[C@@H](CC(=O)O)C(=O)N[C@@H](CC(C)C)C(=O)N1CCC[C@H]1C(=O)N[C@H](C(=O)N[C@@H](CCCCN)C(=O)N[C@@H](CCCNC(=N)N)C(=O)N[C@@H](CCCNC(=N)N)C(=O)N[C@@H](C)C(=O)O)C(C)C`, the EC50 amounted to 0.0928 µM.
